Converted amounts (≈) assume the structure as drawn. Like-named read-outs stand apart in the source and are kept apart here. Marks after values point to notes of the source that are not given here.
System: Legionella pneumophila MMX 7515
Experiment: microbe, parasite or virus in culture
Type: cell-based
Conditions: for MIC: Legionella pneumophila
[1] = MMX7515, 24 h, read-out: MIC (in vitro activity)
[2] = MMX7515, 48 h, read-out: MIC (in vitro activity)

Compound	MIC [1] [µg/mL]	MIC [2] [µg/mL]	MIC (MMX7515, read-out: MIC values) [µg/mL]	MIC (in vitro activity) (L. pneumophila MMX 7515, plate read at 48 hr)	MIC (in vitro activity) (Legionella pneumophila MMX 7515, plate read at 24 hr)
C=C(C)C1CCC(C)=CC1c1c(O)cc(CCCCC)cc1O (centres unmarked) [CBD, 2-[3-methyl-6-(1-methylethenyl)-2-cyclohexen-1-yl]-5-pentyl-1,3-benzenediol]	1 (≈ 3.18 µM)	1 (≈ 3.18 µM)	1 (≈ 3.18 µM)		
C[C@H]1COc2c(N3CCN(C)CC3)c(F)cc3c(=O)c(C(=O)O)cn1c23 [LVX, levofloxacin]	0.5 (≈ 1.38 µM)	0.5 (≈ 1.38 µM)			
C[C@@H](O)[C@H]1C(=O)N2C(C(=O)O)=C(S[C@@H]3CN[C@H](C(=O)N(C)C)C3)[C@H](C)[C@H]12 [MEM, meropenem]	0.25 (≈ 0.652 µM)	0.5 (≈ 1.3 µM)			
CN[C@H](CC(C)C)C(=O)N[C@H]1C(=O)N[C@@H](CC(N)=O)C(=O)N[C@H]2C(=O)N[C@H]3C(=O)N[C@H](C(=O)N[C@H](C(=O)O)c4cc(O)cc(O)c4-c4cc3ccc4O)[C@H](O)c3ccc(c(Cl)c3)Oc3cc2cc(c3O[C@@H]2O[C@H](CO)[C@@H](O)[C@H](O)[C@H]2O[C@H]2C[C@](C)(N)[C@H](O)[C@H](C)O2)Oc2ccc(cc2Cl)[C@H]1O [VAN, vancomycin]	0.12 (≈ 0.0828 µM)	0.25 (≈ 0.173 µM)			
gentamicin				2** μg/mL	1* μg/mL

— US20230014447A1 (priority 2019, published 2023)
